Reference: ChEMBL document CHEMBL5390203, “Identification of Obscurolide-Type Metabolites and Antifungal Metabolites from the Termite-Associated Streptomyces neopeptinius BYF101” (2023)
In brackets after ≈: the same amount, converted by molar mass. Activity calls are given as the source filed them. The rule behind the calls is not given here.

Legend:
Cryptococcus neoformans = experiment: Antifungal activity against Cryptococcus neoformans H99 assessed as fungal growth inhibition incubated for 2 days by broth serial dilution method; assay type: functional; conditions: H99, 48 h, time 2 day
Candida albicans = experiment: Antifungal activity against Candida albicans SC5314 assessed as fungal growth inhibition incubated for 2 days by broth serial dilution method; assay type: functional; conditions: for Activity: time 2.0 day

Structure (SMILES)	MIC (Cryptococcus neoformans)	Activity (Candida albicans)	MIC (Candida albicans; SC5314, 48 h, time 2 day)
O=C1N[C@@H](Cc2ccccc2)C(=O)N2C[C@H](O)C[C@@H]12	50 µg/mL (≈ 192 µM)	inactive	
CC(=O)CC[C@@H]1OC(=O)C[C@H]1Nc1ccc(C(=O)O)cc1	50 µg/mL (≈ 172 µM)		> 100 µg/mL
O=C1[C@H](Cc2ccccc2)NC(=O)[C@]2(O)CCCN12	50 µg/mL (≈ 192 µM)	inactive	
O=C(O)c1c[nH]c2ccccc12	12 µg/mL (≈ 74.5 µM)	inactive	
C/C=C/[C@H](O)[C@@H]1OC(=O)C[C@H]1Nc1ccc(C(=O)O)cc1	25 µg/mL (≈ 85.8 µM)	inactive	
C[C@@H]1NC(=O)[C@H](Cc2ccccc2)NC1=O	100 µg/mL (≈ 458 µM)	inactive	
C[C@]1(O)CC(=O)c2c(cc3cccc(O)c3c2O)C1	50 µg/mL (≈ 194 µM)	inactive	
CC(C)C[C@@H]1NC(=O)[C@H](C(C)C)NC1=O	50 µg/mL (≈ 236 µM)	inactive	
CC(C)C[C@@H]1NC(=O)[C@@H]2CCCN2C1=O	50 µg/mL (≈ 238 µM)	inactive	
CC(=O)Nc1ccccc1O	50 µg/mL (≈ 331 µM)	inactive	
CC(=O)NCCc1c[nH]c2ccccc12 [NB-ACETYLTRYPTAMINE]	200 µg/mL (≈ 989 µM)	inactive	
O=c1[nH]c2ccccc2o1 [BENZOXAZOLINONE]	25 µg/mL (≈ 185 µM)	inactive	
Cc1c(C(=O)O)c(O)cc2c1C(=O)c1c(O)cc(O)cc1C2=O	100 µg/mL (≈ 318 µM)	inactive	
OC(Cn1cncn1)(Cn1cncn1)c1ccc(F)cc1F [FLUCONAZOLE]	4 µg/mL (≈ 13.1 µM)		
O=C1CNC(=O)[C@H](Cc2ccccc2)N1	50 µg/mL (≈ 245 µM)	inactive	
C[C@H](O)/C=C/[C@@H]1OC(=O)C[C@H]1Nc1ccc(C(=O)O)cc1	100 µg/mL (≈ 343 µM)	inactive	
CC(C)C[C@@H]1NC(=O)[C@@H]2C[C@@H](O)CN2C1=O	25 µg/mL (≈ 110 µM)	inactive	
Cc1c(C(=O)O)c(O)cc2c1C(=O)c1c(O)cccc1C2=O	100 µg/mL (≈ 335 µM)	inactive	
CC(C)C[C@@H]1NC(=O)CNC1=O	25 µg/mL (≈ 147 µM)	inactive	
Cc1cc(O)cc2cc3c(c(O)c12)C(=O)CC[C@@H]3O	50 µg/mL (≈ 194 µM)	inactive	
CC(C)[C@@H]1NC(=O)[C@@H]2CCCN2C1=O	100 µg/mL (≈ 510 µM)	inactive	
